In one series the target is T1, human Src kinase (Homo sapiens, UniProt P12931).
T1 construct: full length recombinant human Src kinase; purchased Upstate Biotechnology 14-117; host or cells: baculo viral cells (baculovirus expression system)
In words: SRC inhibition assay (radioactivity-based or spectrophotometric assay). The note with it: assay A or B not specified. It is filed as biochemical. How it is done: The compounds were evaluated as inhibitors of human Src kinase using either a radioactivity-based assay or spectrophotometric assay. The compounds were assayed as inhibitors of full length recombinant human Src kinase (from Upstate Biotechnology, cat. no. 14-117) expressed and purified from baculo viral cells. […] P-0275). […] In a typical assay, all the reaction components with the exception of ATP were pre-mixed and aliquoted into assay plate wells. Inhibitors dissolved in DMSO were added to the wells to give a final DMSO concentration of 2.5%. The assay plate was incubated at 30° C. for 10 min before initiating the reaction with ^33P-ATP. After 20 min of reaction, the reactions were quenched with 150 μl of 10% trichloroacetic acid (TCA) containing 20 mM Na3PO4. The quenched samples were then transferred to a 96-well filter plate (Whatman, UNI-Filter GF/F Glass Fiber Filter, cat no. 7700-3310) installed on a filter plate vacuum manifold. Filter plates were washed four times with 10% TCA containing 20 mM Na3PO4 and then 4 times with methanol. 200 μl of scintillation fluid was then added to each well. The plates were sealed and the amount of radioactivity associated with the filters was quantified on a TopCount scintillation counter. The radioactivity incorporated was plotted as a function of the inhibitor concentration. The data was fitted to a competitive inhibition kinetics model to get the Ki for the compound. The ADP produced from ATP by the human recombinant Src kinase-catalyzed phosphorylation of poly Glu-Tyr substrate was quanitified using a coupled enzyme assay (Fox et al (1998) Protein Sci 7, 2249). In this assay one molecule of NADH is oxidised to NAD for every molecule of ADP produced in the kinase reaction. The disappearance of NADH can be conveniently followed at 340 nm. […] In a typical assay, all the reaction components with the exception of ATP were pre-mixed and aliquoted into assay plate wells. Inhibitors dissolved in DMSO were added to the wells to give a final DMSO concentration of 2.5%. […] The absorbance change at 340 nm with time, the rate of the reaction, was monitored on a molecular devices plate reader. The data of rate as a function of the inhibitor concentration was fitted to compettive inhibition kinetics model to get the Ki for the compound.

Another series addresses T2, GSK-3β (AA 1-420) (Homo sapiens, UniProt P49841).
T2 construct: GSK-3β (AA 1-420)
Put plainly: Ki determination for the inhibition of GSK-3 (coupled enzyme system). It is filed as biochemical. To be noted: 20 μM ATP, 300 μM peptide, 20 nM GSK-3β, 30° C. The method in brief:
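Ki values come from reaction rates over 10 min at 30 °C as a function of inhibitor concentration (12-point titration, 0.002–30 μM, 10 min preincubation). GSK-3β (AA 1-420, 20 nM) phosphorylated 300 μM primed peptide with 20 μM ATP; ADP formation followed by coupled NADH oxidation, pH 7.5.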

For a further series, the target named is T3, Aurora-2 (Homo sapiens, UniProt O14965).
T3 sequence (O14965 1-403): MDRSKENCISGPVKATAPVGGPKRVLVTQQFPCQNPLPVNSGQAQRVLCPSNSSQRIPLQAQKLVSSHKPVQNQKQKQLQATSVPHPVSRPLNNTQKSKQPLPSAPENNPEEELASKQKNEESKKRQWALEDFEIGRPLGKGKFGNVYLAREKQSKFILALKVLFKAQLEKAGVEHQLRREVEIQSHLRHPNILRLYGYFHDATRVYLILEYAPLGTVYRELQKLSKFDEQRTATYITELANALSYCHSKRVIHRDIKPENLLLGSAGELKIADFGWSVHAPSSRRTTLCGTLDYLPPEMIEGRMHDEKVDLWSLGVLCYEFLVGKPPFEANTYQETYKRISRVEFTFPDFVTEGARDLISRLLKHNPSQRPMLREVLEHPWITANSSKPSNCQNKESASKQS
Put plainly: Ki determination for the inhibition of Aurora-2 (coupled enzyme assay). Format: biochemical. To be noted: 70 nM Aurora-2, peptide LRRASLG, 30° C. The method in brief:
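Ki came from reaction rates plotted against inhibitor concentration, with rates taken as A340 decrease over 5 min at 30° C. Enzyme (70 nM final) was added after 10 min compound preincubation; stock buffer held […], 800 μM LRRASLG, PK/LDH coupling, pH 7.5.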

Usually Ki stands for a measure of affinity in units of concentration, obtained from inhibition or displacement. Broadly, the melting point is the temperature, or range, at which the solid turns liquid.

Molecules are shown by their SMILES. Where two headings read alike, the source gives them in different places.

T2 sequence (P49841 whole entry, the tested form may be a part): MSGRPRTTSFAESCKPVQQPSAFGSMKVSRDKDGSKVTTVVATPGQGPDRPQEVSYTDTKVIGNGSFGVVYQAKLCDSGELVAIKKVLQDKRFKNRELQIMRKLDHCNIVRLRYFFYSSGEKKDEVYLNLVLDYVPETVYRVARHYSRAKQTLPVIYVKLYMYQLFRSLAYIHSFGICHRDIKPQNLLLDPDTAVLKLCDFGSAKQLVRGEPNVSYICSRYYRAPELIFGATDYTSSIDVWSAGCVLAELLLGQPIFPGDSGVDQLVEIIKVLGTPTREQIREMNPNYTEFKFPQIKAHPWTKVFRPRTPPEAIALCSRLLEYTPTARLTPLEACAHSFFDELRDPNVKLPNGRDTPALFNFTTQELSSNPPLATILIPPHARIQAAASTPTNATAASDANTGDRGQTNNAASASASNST
T1 sequence (P12931 whole entry): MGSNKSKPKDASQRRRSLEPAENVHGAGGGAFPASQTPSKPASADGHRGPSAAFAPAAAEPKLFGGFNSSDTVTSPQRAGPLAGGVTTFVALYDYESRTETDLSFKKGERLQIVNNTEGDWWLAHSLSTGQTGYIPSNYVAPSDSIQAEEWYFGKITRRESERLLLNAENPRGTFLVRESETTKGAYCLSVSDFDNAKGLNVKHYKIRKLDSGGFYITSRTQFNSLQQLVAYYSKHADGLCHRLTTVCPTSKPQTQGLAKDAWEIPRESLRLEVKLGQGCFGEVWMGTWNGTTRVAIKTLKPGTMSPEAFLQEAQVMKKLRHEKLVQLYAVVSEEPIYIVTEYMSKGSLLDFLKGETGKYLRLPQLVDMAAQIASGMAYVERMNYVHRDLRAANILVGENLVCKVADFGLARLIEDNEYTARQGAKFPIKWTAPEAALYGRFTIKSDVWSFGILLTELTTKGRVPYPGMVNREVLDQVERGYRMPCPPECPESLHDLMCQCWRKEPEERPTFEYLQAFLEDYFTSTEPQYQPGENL

Consider `Cc1cc(Nc2nc(-c3ccccc3)nc3ccccc23)[nH]n1` [III-31, (5-Methyl-2H-pyrazol-3-yl)-(2-phenyl-quinazolin-4-yl)-amine], for which the Ki at human Src kinase (read-out: Ki value on SRC), on GSK-3β (AA 1-420) and on Aurora-2 was less than 0.1 µM each time.
On to `Cc1cc(Nc2nc(-c3ccc(I)cc3)nc3ccccc23)[nH]n1` [III-32, [2-(4-Iodophenyl)-quinazolin-4-yl]-(5-methyl-2H-pyrazol-3-yl)-amine], for which the Ki on human Src kinase (read-out: Ki value on SRC) and on Aurora-2 was less than 0.1 µM each time.
As to `Cc1cc(Nc2nc(-c3ccc(Cl)c(Cl)c3)nc3ccccc23)[nH]n1` [III-33, [2-(3,4-Dichlorophenyl)-quinazolin-4-yl]-(5-methyl-2H-pyrazol-3-yl)-amine], the melting point was determined as 274 °C. The inhibition constant (Ki) on human Src kinase (read-out: Ki value on SRC) is less than 0.1 µM. Also, the Ki on GSK-3β (AA 1-420) was less than 0.1 µM. The Ki at Aurora-2 is less than 0.1 µM.
As to `Cc1cc(Nc2nc(-c3ccc(Br)cc3)nc3ccccc23)[nH]n1` [III-34, [2-(4-Bromophenyl)-quinazolin-4-yl]-(5-methyl-2H-pyrazol-3-yl)-amine], the melting point fell in the range of 262 to 265 °C. Further, the inhibitory constant (Ki) on human Src kinase (read-out: Ki value on SRC) was less than 0.1 µM. Also, the Ki on GSK-3β (AA 1-420) was less than 0.1 µM. The Ki at Aurora-2 was less than 0.1 µM.
Take `Cc1cc(Nc2nc(-c3ccc(Cl)cc3)nc3ccccc23)[nH]n1` [III-35, [2-(4-Chlorophenyl)-quinazolin-4-yl]-(5-methyl-2H-pyrazol-3-yl)-amine]: the melting point was greater than 300 °C. Further, on human Src kinase (read-out: Ki value on SRC), the Ki was less than 0.1 µM. Also, the Ki at GSK-3β (AA 1-420) was less than 0.1 µM. At Aurora-2, this molecule registered a Ki of less than 0.1 µM.
With `Cc1cc(Nc2nc(-c3ccc(C#N)cc3)nc3ccccc23)[nH]n1` [III-37, [2-(4-Cyanophenyl)-quinazolin-4-yl]-(5-methyl-2H-pyrazol-3-yl)-amine], the melting point was 263 °C. The Ki on human Src kinase (read-out: Ki value on SRC) was less than 0.1 µM. This molecule also came in with a Ki on GSK-3β (AA 1-420) of less than 0.1 µM. Also, at Aurora-2, the Ki is less than 0.1 µM.
With `Cc1cc(Nc2nc(-c3cccc(I)c3)nc3ccccc23)[nH]n1` [III-38, [2-(3-Iodophenyl)-quinazolin-4-yl]-(5-methyl-2H-pyrazol-3-yl)-amine], the melting point was in the range of 234 to 235 °C. In addition, on human Src kinase (read-out: Ki value on SRC), the inhibition constant Ki is less than 0.1 µM. The same molecule returned a Ki on GSK-3β (AA 1-420) of less than 0.1 µM. At Aurora-2, this molecule displayed a Ki of less than 0.1 µM.
For `CCSc1ccc(-c2nc(Nc3cc(C)n[nH]3)c3ccccc3n2)cc1` [III-39, [2-(4-Ethylsulfanylphenyl)-quinazolin-4-yl]-(5-methyl-2H-pyrazol-3-yl)-amine], the melting point is 229 to 231 °C. Also, the Ki at human Src kinase (read-out: Ki value on SRC) is less than 0.1 µM. Further, the Ki at GSK-3β (AA 1-420) is less than 0.1 µM. The Ki on Aurora-2 is less than 0.1 µM.
Consider `Clc1ccc(-c2nc(Nc3cc(C4CC4)n[nH]3)c3ccccc3n2)cc1` [III-42, [2-(4-Chlorophenyl)-quinazolin-4-yl]-(5-cyclopropyl-2H-pyrazol-3-yl)-amine], for which the Ki on human Src kinase (read-out: Ki value on SRC), at GSK-3β (AA 1-420) and on Aurora-2 was less than 0.1 µM each time.
On to `Cc1cc(Nc2nc(-c3ccc(N(C)C)cc3)nc3ccccc23)[nH]n1` [III-44, [2-(4-Dimethylaminophenyl)-quinazolin-4-yl]-(5-methyl-2H-pyrazol-3-yl)-amine], for which the Ki is less than 0.1 µM at human Src kinase (read-out: Ki value on SRC), 0.1 to 1 µM at GSK-3β (AA 1-420) and less than 0.1 µM at Aurora-2.
Turning to `Cc1cc(Nc2nc(-c3ccc(-c4ccccc4)cc3)nc3ccccc23)[nH]n1` [III-47, (2-Biphenyl-4-yl-quinazolin-4-yl)-(5-methyl-2H-pyrazol-3-yl)-amine], the Ki on human Src kinase (read-out: Ki value on SRC), at GSK-3β (AA 1-420) and on Aurora-2 was less than 0.1 µM throughout.
As for `C#Cc1ccc(-c2nc(Nc3cc(C)n[nH]3)c3ccccc3n2)cc1` [III-48, [2-(4-Ethynylphenyl)-quinazolin-4-yl]-(5-methyl-2H-pyrazol-3-yl)-amine], the Ki on human Src kinase (read-out: Ki value on SRC), at GSK-3β (AA 1-420) and on Aurora-2 was less than 0.1 µM throughout.
Take `NCCCc1cc(Nc2nc(-c3ccccc3)nc3ccccc23)[nH]n1` [III-79, [5-(3-Aminoprop-1-yl)-2H-pyrazol-3-yl]-(2-phenyl-quinazolin-4-yl)-amine]: the melting point was 205 to 207 °C. The inhibition constant (Ki) on human Src kinase (read-out: Ki value for SRC) is 1 to 6 µM. This molecule displayed a Ki on Aurora-2 of 1 to 20 µM.
Take `Cc1cc(Nc2nc(N3CCC(C)CC3)nc3ccccc23)[nH]n1` [III-106, [2-(4-Methylpiperidin-1-yl)-quinazolin-4-yl]-(5-methyl-2H-pyrazol-3-yl)-amine]: the melting point was 148 to 150 °C. The molecule further came in with a Ki at GSK-3β (AA 1-420) of less than 0.1 µM. Also, the Ki at Aurora-2 is less than 0.1 µM.
Turning to `Cc1cc(Nc2nc(N3CCN(C)CC3)nc3ccccc23)[nH]n1` [III-107, [2-(4-Methylpiperazin-1-yl)-quinazolin-4-yl]-(5-methyl-2H-pyrazol-3-yl)-amine], the melting point was 105 to 107 °C. In addition, the Ki on GSK-3β (AA 1-420) lay in the range of 0.1 to 1 µM. Besides, the Ki at Aurora-2 is 0.1 to 1 µM.
As to `Cc1cc(Nc2nc(N3CCC(CCO)CC3)nc3ccccc23)[nH]n1` [III-110], the melting point amounted to 175 °C. Moreover, on GSK-3β (AA 1-420), the Ki was in the range of 0.1 to 1 µM. Further, the Ki at Aurora-2 was less than 0.1 µM.
The like results for `Cc1cc(Nc2nc(N3CCC4(CC3)OCCO4)nc3ccccc23)[nH]n1` [III-112, [2-(1,4-Dioxa-8-aza-spiro[4,5]dec-8-yl)-quinazolin-4-yl]-(5-methyl-2H-pyrazol-3-yl)-amine] were, in that order, 191 °C, 0.1 to 1 µM and less than 0.1 µM.
The corresponding values for `Cc1cc(Nc2nc(N3CCC(O)CC3)nc3ccccc23)[nH]n1` [III-114, [2-(4-Hydroxypiperidin-1-yl)-quinazolin-4-yl]-(5-methyl-2H-pyrazol-3-yl)-amine] are 123 °C, 0.1 to 1 µM and less than 0.1 µM.
`c1ccc2c(c1)CN(c1nc(Nc3cc(C4CC4)n[nH]3)c3ccccc3n1)C2` [III-116, (5-Cyclopropyl-2H-pyrazol-3-yl)-[2-(1,3-dihydro-isoindol-2-yl)-quinazolin-4-yl]-amine] showed a melting point of 237 °C. At GSK-3β (AA 1-420), this molecule displayed a Ki of less than 0.1 µM. This molecule showed a Ki at Aurora-2 of less than 0.1 µM.
For the molecule `c1ccc2c(c1)CCN2c1nc(Nc2cc(C3CC3)n[nH]2)c2ccccc2n1` [III-119, (5-Cyclopropyl-2H-pyrazol-3-yl)-[2-(2,3-dihydro-indol-1-yl)-quinazolin-4-yl]-amine], the melting point was 150 to 153 °C. Also, the inhibition constant Ki at GSK-3β (AA 1-420) was less than 0.1 µM. This molecule gave a Ki at Aurora-2 of less than 0.1 µM.
`c1ccc2c(c1)CCCN2c1nc(Nc2cc(C3CC3)n[nH]2)c2ccccc2n1` [III-121, (5-Cyclopropyl-2H-pyrazol-3-yl)-[2-(3,4-dihydro-2H-quinolin-1-yl)-quinazolin-4-yl]-amine] yielded a melting point of 137 to 145 °C. In addition, at GSK-3β (AA 1-420), the inhibitory constant (Ki) was less than 0.1 µM. The Ki at Aurora-2 was less than 0.1 µM.
For the molecule `c1ccc(-c2nc(Nc3ncn[nH]3)c3ccccc3n2)cc1` [IX-154, (2-Phenyl-quinazolin-4-yl)-(2H-[1,2,4]triazol-3-yl)-amine], the melting point was in the range of 266 to 267 °C. The Ki on GSK-3β (AA 1-420) fell in the range of 0.1 to 1 µM. At Aurora-2, this molecule had a Ki of 1 to 20 µM.
